Literature values as cited in patent US20090098211A1, “SOLID DOSAGE FORMS” (priority 2007, published 2009).

solubility in water (in words) (water): practically insoluble in water
water solubility (water at 25° C.): about 2 μg per mL
Structure (SMILES): CN1CC(=O)N2[C@H](c3ccc4c(c3)OCO4)c3[nH]c4ccccc4c3C[C@@H]2C1=O [Tadalafil, (6R-trans)-6-(1,3-benzodioxol-5-yl)-2,3,6,7,12,12a-hexahydro-2-methyl-pyrazino[1′,2′:1,6]pyrido[3,4-b]indole-1,4-dione]
